Source: US20260014225A1, “USE OF HULLESS BARLEY GRASS EXTRACT IN CONTROLLING COLORECTAL CANCER AND ULCERATIVE COLITIS” (Shanghai Jiao Tong University, priority 2024, published 2026)

Key:
Format in all cases: in vivo, C57BL/6N male mice
[1] = system: acute ulcerative colitis model in mice; test: DSS-induced acute ulcerative colitis mouse model (body weight, DAI, colon length, survival); details: 3% DSS colitis mice, gavage; model group 2.93, blank 0 (FIG. 3C)
TNF-α, IL-6, IL-1β mRNA = test: qPCR of inflammatory factors in tumor tissue of colorectal cancer mice
Procedure: (§1) The whole colon of a mouse was divided into two major parts, namely the tumor segment and the white-side segment. 20 mg of tumor tissue and white-side tissue were taken from the same mouse for total RNA extraction and reverse transcription reaction. The specific operation was the same as above.
(§2) The experimental data were plotted using GraphPad Prism9.0, and statistical analysis was conducted using one-way ANOVA, where “ns” indicated no significant difference, “*” indicated p<0.05, “**” indicated p<0.01, “***” indicated p<0.001, and “****” indicated p<0.0001. The relative expression of mRNA in qPCR was calculated using the […] method.

COX-2, EGFR, INOS genes = test: qPCR of COX-2, EGFR and INOS genes in tumor tissue of colorectal cancer mice
Procedure: as §1, §2

[2] = system: colitis-associated colorectal cancer model in mice; test: AOM/DSS-induced colitis-associated colorectal cancer mouse model (body weight, colon, tumors, serum IL-6)
Procedure: In this experiment, a mouse colitis-associated colorectal cancer model was established using AOM/DSS, and a specific process is shown in FIG. 2. C57BL/6N male mice were placed in an SPF barrier environment for adaptive feeding for one week, while mice with abnormal weight were eliminated. The remaining mice were randomly divided into […], namely: blank group, 3% DSS+normal saline group (a model group), 3% DSS+300 mg/kg mesalazine (a positive drug group), 3% DSS+600 mg/kg hulless barley grass-derived polyphenol crude extract (Example 1), 3% DSS+400 mg/kg hulless barley grass-derived polysaccharide crude extract (Comparative Example 1), 3% DSS+200 mg/kg hulless barley grass-derived lipid crude extract (Comparative Example 2), and 3% DSS+600 mg/kg hulless barley seed-derived polyphenol crude extract (Comparative Example 3). There were ten mice in each group. In the second week, the mice in the model group, positive group, grass polyphenol group, polysaccharide group, lipid group, and seed polyphenol group were intraperitoneally injected with 10 mg/kg AOM. From the third week, the mice drank 3% DSS aqueous solution for one week, and then the DSS aqueous solution was replaced with sterile water for the mice to drink. The experiment ended after six weeks. During the entire experiment, each group of mice was gavaged with medication according to the grouping. The conditions of mice were observed and their weights were recorded each time they were gavaged. At the end of the experiment, all mice were anesthetized, and the colon (from the anus to the cecum), liver, kidney, and spleen tissues of the mice were collected and weighed after dissection. The intestinal contents were gently rinsed with PBS and the length of the mouse colon tissue was measured. The colon was longitudinally cut open with ophthalmic scissors, and the number and size of tumors in the mouse colon were measured with a vernier caliper and recorded. A part of the whole colon of the mouse was taken for the subsequent preparation of colon Swiss rolls, fixated in 4% paraformaldehyde fixative for histopathological analysis, and the remaining tissues were quick-frozen in liquid nitrogen and then transferred to a −80° C. refrigerator for further measurement of qPCR and other experiments.

intestinal flora = test: 16S rRNA sequencing of intestinal flora in colorectal cancer mice; details: colorectal cancer mice (FIG. 16D)
Procedure: The mouse feces was collected using a 1.5 mL EP tube, immediately frozen in liquid nitrogen, and stored at −80° C. before sample delivery. 6 samples of mouse colon contents were collected from each group and placed in dry ice for 16S rRNA sequencing by Qingdao Biomarker Technologies Co., LTD.

[3] = system: colon tissue of colorectal cancer mice; test: Colon Swiss roll H&E histopathology of colorectal cancer mice; details: AOM/DSS colorectal cancer mice, compared with the model group (FIG. 13)
Procedure: The colon was taken out from the fixative in a fume hood, one end of the colon was gently clamped with ophthalmic forceps, and the entire colon was gently rolled around the forceps in one direction. Be careful not to do it too tight or too loose, otherwise the intestinal villi might fall over or become loose. The Swiss roll was prepared by piercing the edge of the rolled intestine with a fine needle to complete the fixation, and the ophthalmic forceps were removed in the center of the colon. The Swiss roll was placed in an embedding frame and labeled, followed by dehydration and wax immersion, paraffin embedding, paraffin sectioning, dewaxing to water, hematoxylin staining, eosin staining, dehydration and sealing, microscopic examination, and graphic analysis.

[4] = AOM/DSS colorectal cancer mice, compared with the model group (FIG. 12C)

Nc1ccc(O)c(C(=O)O)c1 [mesalazine]
disease activity index (DAI) [1]: 2.33
relative expression level of TNF-α mRNA (TNF-α, IL-6, IL-1β mRNA; compared with the model group (FIG. 14A)): significantly reduced
relative expression level of IL-6 mRNA (TNF-α, IL-6, IL-1β mRNA; compared with the model group (FIG. 14B)): significantly reduced
relative expression level of IL-1β mRNA (TNF-α, IL-6, IL-1β mRNA; compared with the model group (FIG. 14C)): significantly reduced
expression level of COX-2 gene (COX-2, EGFR, INOS genes; compared with the model group (FIG. 15A)): significantly downregulated
expression level of EGFR gene (COX-2, EGFR, INOS genes; compared with the model group (FIG. 15B)): significantly downregulated
expression level of INOS gene (COX-2, EGFR, INOS genes; compared with the model group (FIG. 15C)): significantly downregulated
colon weight per unit length (increase in tumor weight caused by modeling) ([2]; AOM/DSS colorectal cancer mice (FIG. 11C)): effectively reduced the increase in tumor weight caused by modeling
proportion of tumors above 3 mm [2, 4]: decreased
proportion of tumors less than 2 mm [2, 4]: increased significantly
proportion of tumors of 2 mm to 3 mm [2, 4]: decreased
body weight when the experiment was over ([2]; AOM/DSS colorectal cancer mice, last day (FIG. 10B)): significant decrease
richness and uniformity of the intestinal flora (rank abundance curve) (intestinal flora): closest to those of the blank group
colon thickness and tumors in pathological sections (H&E) [3]: showed a similar trend
